The target of series [1] is T1, Glucagon-like peptide 2 receptor (Homo sapiens, UniProt O95838).
T1 sequence (O95838 whole entry): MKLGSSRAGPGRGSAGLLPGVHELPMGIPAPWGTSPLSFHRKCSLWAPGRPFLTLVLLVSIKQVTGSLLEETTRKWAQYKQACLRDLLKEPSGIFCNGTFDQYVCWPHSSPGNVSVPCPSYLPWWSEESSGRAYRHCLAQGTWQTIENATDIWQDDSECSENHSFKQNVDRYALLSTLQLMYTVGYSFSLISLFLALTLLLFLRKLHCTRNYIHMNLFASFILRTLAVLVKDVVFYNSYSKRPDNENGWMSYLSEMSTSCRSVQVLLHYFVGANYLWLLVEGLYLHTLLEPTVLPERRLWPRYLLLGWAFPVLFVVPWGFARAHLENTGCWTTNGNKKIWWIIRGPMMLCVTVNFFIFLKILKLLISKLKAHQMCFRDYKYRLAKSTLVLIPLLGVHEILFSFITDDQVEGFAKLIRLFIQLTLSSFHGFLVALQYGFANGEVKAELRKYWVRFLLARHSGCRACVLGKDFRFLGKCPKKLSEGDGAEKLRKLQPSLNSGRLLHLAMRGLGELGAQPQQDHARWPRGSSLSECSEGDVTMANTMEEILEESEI
Kind of series: Agonist activity at human GLP2R expressed in HEK293 cells after 5 hrs by luciferase reporter gene assay. Format: cell-based.

The target in series [2] is T2, Glucagon-like peptide 1 receptor (Homo sapiens, UniProt P43220). Kind of series: Agonist activity at human GLP1R expressed in HEK293 cells after 5 hrs by luciferase reporter gene assay. The class given is cell-based. (In general: In a reporter assay the amount or activity of a reporter protein is the signal.)
T2 sequence (P43220 whole entry): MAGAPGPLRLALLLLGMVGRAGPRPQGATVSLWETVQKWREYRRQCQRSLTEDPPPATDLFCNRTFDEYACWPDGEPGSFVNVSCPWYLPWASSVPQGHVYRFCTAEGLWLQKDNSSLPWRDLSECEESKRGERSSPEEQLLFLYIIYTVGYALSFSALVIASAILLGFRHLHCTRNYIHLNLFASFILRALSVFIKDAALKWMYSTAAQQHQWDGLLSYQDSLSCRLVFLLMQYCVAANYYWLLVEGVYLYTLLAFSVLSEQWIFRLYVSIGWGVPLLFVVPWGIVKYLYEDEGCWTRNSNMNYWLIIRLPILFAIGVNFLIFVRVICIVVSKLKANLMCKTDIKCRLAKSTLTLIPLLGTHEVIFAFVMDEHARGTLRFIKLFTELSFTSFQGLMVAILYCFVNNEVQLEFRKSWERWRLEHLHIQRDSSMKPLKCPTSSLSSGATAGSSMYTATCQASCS
The target in series [3] is T3, Glucagon-like peptide 2 receptor (Homo sapiens) (UniProt O95838).
T3 sequence (whole entry): T1 sequence (O95838 whole entry)
Kind of series: Potency index, ratio of compound EC50 to compound 2 EC50 for human GLP2R expressed in HEK293 cells. The class given is cell-based.

Series [4] concerns HEK293. Kind of series: Selectivity ratio of EC50 for human GLP1R expressed in HEK293 cells to EC50 for human GLP2R expressed in HEK293. Format: cell-based.
Series [5] can be described thus: Systemic clearance in Sprague-Dawley rat at 0.2 mg/kg, iv through cassette dosing measured up to 300 mins by LC/MS/MS analysis. Format: ADME, organism-based. As to conditions: in vivo.
Series [6] concerns the target T2, Glucagon-like peptide 1 receptor. Kind of series: Agonist activity at human GLP1R expressed in HEK293 cells at 30 nM after 5 hrs by luciferase reporter gene assay. Format: cell-based.
The target of series [7] is Glucagon receptor (Homo sapiens) (UniProt P47871). The experiment in a line: Agonist activity at human GCGR expressed in HEK293 cells after 5 hrs by luciferase reporter gene assay. Format: cell-based.
Sequence of Glucagon receptor (Homo sapiens) (P47871 whole entry): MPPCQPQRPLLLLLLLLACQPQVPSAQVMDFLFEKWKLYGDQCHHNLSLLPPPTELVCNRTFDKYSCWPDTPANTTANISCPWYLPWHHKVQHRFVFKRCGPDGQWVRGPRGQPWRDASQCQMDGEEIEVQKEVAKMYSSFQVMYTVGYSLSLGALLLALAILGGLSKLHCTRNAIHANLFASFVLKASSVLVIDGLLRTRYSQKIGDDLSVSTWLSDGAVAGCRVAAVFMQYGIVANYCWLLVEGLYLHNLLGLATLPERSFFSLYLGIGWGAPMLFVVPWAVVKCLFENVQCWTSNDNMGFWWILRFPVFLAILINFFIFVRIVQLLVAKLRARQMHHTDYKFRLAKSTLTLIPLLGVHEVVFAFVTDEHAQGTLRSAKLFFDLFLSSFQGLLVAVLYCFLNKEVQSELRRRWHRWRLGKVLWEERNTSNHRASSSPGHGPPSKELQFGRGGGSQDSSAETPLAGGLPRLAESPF

A word on the EC50: it is the concentration that produces a half-maximal response. Low values mean an effect from little substance, high ones a need for much substance. As usually defined, the clearance is a measure of how efficiently the substance is removed, as volume per time. Lower therefore signals inefficient removal.

The source made the active and inactive calls. The rule behind the calls is not given here.

For H-HGDGSFSDEMNTILDNLAARDFINWLIQTK-NH2, the EC50 is 0.22 nM in series [1] and greater than 1000 nM in series [2]. The Ratio EC50 is 2.4 in series [3] and greater than 4500 in series [4]. The molecule further came in with a clearance in series [5] of 20 mL/min/kg.
As to `CCCCC(NC(=O)[C@H](CCC(=O)O)NC(=O)[C@H](CC(=O)O)NC(=O)[C@H](CO)NC(=O)[C@H](Cc1ccccc1)NC(=O)[C@H](CO)NC(=O)CNC(=O)[C@H](CC(=O)O)NC(=O)CNC(=O)[C@@H](N)Cc1cnc[nH]1)C(=O)N[C@H](Cc1ccc(-c2ccccc2)cc1)C(=O)N[C@H](C(=O)N[C@H](C(=O)N[C@@H](CC(C)C)C(=O)N[C@@H](CC(=O)O)C(=O)N[C@@H](CC(N)=O)C(=O)N[C@@H](CC(C)C)C(=O)N[C@@H](C)C(=O)N[C@@H](C)C(=O)N[C@@H](CCCNC(=N)N)C(=O)N[C@@H](CC(=O)O)C(=O)N[C@@H](Cc1ccccc1)C(=O)N[C@H](C(=O)N[C@@H](CC(N)=O)C(=O)N[C@@H](Cc1c[nH]c2ccccc12)C(=O)N[C@@H](CC(C)C)C(=O)N[C@H](C(=O)N[C@@H](CCC(N)=O)C(=O)N[C@H](C(=O)N[C@@H](CCCCN)C(N)=O)[C@@H](C)O)[C@@H](C)CC)[C@@H](C)CC)[C@@H](C)CC)[C@@H](C)O` (stereo partly specified), the concentration for a half-maximal effect (EC50) in series [1] was found to be 1.9 nM; in series [2] it was 39 nM. The molecule also yielded an Efficacy in series [6] of 108%. Moreover, in series [4], the Ratio EC50 amounted to 20. The result in series [7] was inactive.
The like results for `CCCCC(NC(=O)[C@H](CCC(=O)O)NC(=O)[C@H](CC(=O)O)NC(=O)[C@H](CO)NC(=O)[C@H](Cc1ccccc1)NC(=O)[C@@H](CO)NC(=O)CNC(=O)[C@@H](CC(=O)O)NC(=O)CNC(=O)[C@@H](N)Cc1cnc[nH]1)C(=O)NC(CCC(C)C)C(=O)N[C@H](C(=O)N[C@H](C(=O)N[C@@H](CC(C)C)C(=O)N[C@@H](CC(=O)O)C(=O)N[C@@H](CC(N)=O)C(=O)N[C@@H](CC(C)C)C(=O)N[C@@H](C)C(=O)N[C@@H](C)C(=O)N[C@@H](CCCNC(=N)N)C(=O)N[C@@H](CC(=O)O)C(=O)N[C@H](Cc1ccccc1)C(=O)N[C@@H](C(=O)N[C@H](CC(N)=O)C(=O)N[C@@H](Cc1c[nH]c2ccccc12)C(=O)N[C@H](CC(C)C)C(=O)N[C@@H](C(=O)N[C@H](CCC(N)=O)C(=O)N[C@@H](C(=O)N[C@@H](CCCCN)C(N)=O)[C@H](C)O)[C@H](C)CC)[C@H](C)CC)[C@H](C)CC)[C@@H](C)O` (stereo partly specified) were, in that order, 0.29 nM, 10 nM, 87%, 34 and “inactive”.
For `CC[C@H](C)[C@H](NC(=O)[C@H](Cc1ccccc1)NC(=O)[C@H](CC(=O)O)NC(=O)[C@H](CCCNC(=N)N)NC(=O)[C@H](C)NC(=O)[C@H](C)NC(=O)[C@H](CC(C)C)NC(=O)[C@H](CC(N)=O)NC(=O)[C@H](CC(=O)O)NC(=O)[C@H](CC(C)C)NC(=O)[C@@H](NC(=O)[C@@H](NC(=O)[C@H](CC(N)=O)NC(=O)[C@H](CCSC)NC(=O)[C@H](CCC(=O)O)NC(=O)[C@H](CC(=O)O)NC(=O)[C@H](CO)NC(=O)[C@H](Cc1ccccc1)NC(=O)[C@H](CO)NC(=O)CNC(=O)[C@H](CC(=O)O)NC(=O)[C@H](C)NC(=O)[C@@H](N)Cc1cnc[nH]1)[C@@H](C)O)[C@@H](C)CC)C(=O)N[C@@H](CC(N)=O)C(=O)N[C@@H](Cc1c[nH]c2ccccc12)C(=O)N[C@@H](CC(C)C)C(=O)N[C@H](C(=O)N[C@@H](CCC(N)=O)C(=O)N[C@H](C(=O)N[C@@H](CCCCN)C(=O)N[C@H](C(=O)N[C@H](C(=O)N[C@@H](CC(=O)O)C(=O)O)[C@@H](C)O)[C@@H](C)CC)[C@@H](C)O)[C@@H](C)CC`, the Efficacy in series [6] came out at 71%.
For the molecule `CCCCC(NC(=O)[C@@H](CCC(=O)O)NC(=O)[C@@H](CC(=O)O)NC(=O)[C@@H](CO)NC(=O)[C@@H](Cc1ccccc1)NC(=O)[C@@H](CO)NC(=O)CNC(=O)[C@@H](CC(=O)O)NC(=O)CNC(=O)[C@@H](N)Cc1cnc[nH]1)C(=O)NC(Cc1ccc(-c2ccccc2)cc1)C(=O)N[C@@H](C(=O)N[C@@H](C(=O)N[C@H](CC(C)C)C(=O)N[C@H](CC(=O)O)C(=O)N[C@H](CC(N)=O)C(=O)N[C@H](CC(C)C)C(=O)N[C@H](C)C(=O)N[C@H](C)C(=O)N[C@H](CCCNC(=N)N)C(=O)N[C@H](CC(=O)O)C(=O)N[C@H](Cc1ccccc1)C(=O)N[C@@H](C(=O)N[C@H](CC(N)=O)C(=O)N[C@@H](Cc1c[nH]c2ccccc12)C(=O)N[C@@H](CC(C)C)C(=O)N[C@H](C(=O)N[C@@H](CCC(N)=O)C(=O)N[C@H](C(=O)N[C@H](CCCCN)C(N)=O)[C@@H](C)O)[C@H](C)CC)[C@@H](C)CC)[C@H](C)CC)[C@H](C)O` (stereo partly specified), the concentration for a half-maximal effect (EC50) worked out at 0.18 nM in series [1] and 21 nM in series [2]. Besides, in series [6], the Efficacy was 83%. In addition, in series [4], the Ratio EC50 amounted to 110. Further, the outcome in series [7] was inactive.
In turn, `CCCCC(NC(=O)[C@H](CCC(=O)O)NC(=O)[C@H](CC(=O)O)NC(=O)[C@H](CO)NC(=O)[C@H](Cc1ccccc1)NC(=O)[C@H](CO)NC(=O)CNC(=O)[C@H](CC(=O)O)NC(=O)CNC(=O)[C@@H](N)Cc1cnc[nH]1)C(=O)N[C@H](Cc1ccccc1)C(=O)N[C@H](C(=O)N[C@H](C(=O)N[C@@H](CC(C)C)C(=O)N[C@@H](CC(=O)O)C(=O)N[C@@H](CC(N)=O)C(=O)N[C@@H](CC(C)C)C(=O)N[C@@H](C)C(=O)N[C@@H](C)C(=O)N[C@@H](CCCNC(=N)N)C(=O)N[C@@H](CC(=O)O)C(=O)N[C@@H](Cc1ccccc1)C(=O)N[C@H](C(=O)N[C@@H](CC(N)=O)C(=O)N[C@@H](Cc1c[nH]c2ccccc12)C(=O)N[C@@H](CC(C)C)C(=O)N[C@H](C(=O)N[C@@H](CCC(N)=O)C(=O)N[C@H](C(=O)N[C@@H](CCCCN)C(N)=O)[C@@H](C)O)[C@@H](C)CC)[C@@H](C)CC)[C@@H](C)CC)[C@@H](C)O` (stereo partly specified) registered an Efficacy in series [6] of 64%. The Ratio EC50 in series [4] was 1300. Moreover, the outcome in series [7] was inactive.
Regarding `CCCCC(NC(=O)[C@H](CCC(=O)O)NC(=O)[C@H](CC(=O)O)NC(=O)[C@H](CO)NC(=O)[C@H](Cc1ccccc1)NC(=O)[C@H](CO)NC(=O)CNC(=O)[C@H](CC(=O)O)NC(=O)CNC(=O)[C@@H](N)Cc1cnc[nH]1)C(=O)N[C@H](Cc1ccc(Cl)cc1)C(=O)N[C@H](C(=O)N[C@H](C(=O)N[C@@H](CC(C)C)C(=O)N[C@@H](CC(=O)O)C(=O)N[C@@H](CC(N)=O)C(=O)N[C@@H](CC(C)C)C(=O)N[C@@H](C)C(=O)N[C@@H](C)C(=O)N[C@@H](CCCNC(=N)N)C(=O)N[C@@H](CC(=O)O)C(=O)N[C@@H](Cc1ccccc1)C(=O)N[C@H](C(=O)N[C@@H](CC(N)=O)C(=O)N[C@@H](Cc1c[nH]c2ccccc12)C(=O)N[C@@H](CC(C)C)C(=O)N[C@H](C(=O)N[C@@H](CCC(N)=O)C(=O)N[C@H](C(=O)N[C@@H](CCCCN)C(N)=O)[C@@H](C)O)[C@@H](C)CC)[C@@H](C)CC)[C@@H](C)CC)[C@@H](C)O` (stereo partly specified), the Efficacy in series [6] is 86%. Also, the Ratio EC50 in series [4] worked out at 660. The outcome in series [7] was inactive.
Take `CCCCC(NC(=O)[C@H](CCC(=O)O)NC(=O)[C@H](CC(=O)O)NC(=O)[C@H](CO)NC(=O)[C@H](Cc1ccccc1)NC(=O)[C@H](CO)NC(=O)CNC(=O)[C@H](CC(=O)O)NC(=O)CNC(=O)[C@@H](N)Cc1cnc[nH]1)C(=O)N[C@@H](Cc1cnc[nH]1)C(=O)N[C@H](C(=O)N[C@H](C(=O)N[C@@H](CC(C)C)C(=O)N[C@@H](CC(=O)O)C(=O)N[C@@H](CC(N)=O)C(=O)N[C@@H](CC(C)C)C(=O)N[C@@H](C)C(=O)N[C@@H](C)C(=O)N[C@@H](CCCNC(=N)N)C(=O)N[C@@H](CC(=O)O)C(=O)N[C@@H](Cc1ccccc1)C(=O)N[C@H](C(=O)N[C@@H](CC(N)=O)C(=O)N[C@@H](Cc1c[nH]c2ccccc12)C(=O)N[C@@H](CC(C)C)C(=O)N[C@H](C(=O)N[C@@H](CCC(N)=O)C(=O)N[C@H](C(=O)N[C@@H](CCCCN)C(N)=O)[C@@H](C)O)[C@@H](C)CC)[C@@H](C)CC)[C@@H](C)CC)[C@@H](C)O` (stereo partly specified): the EC50 worked out at 0.44 nM in series [1] and 300 nM in series [2]. In series [6], this molecule showed an Efficacy of 35%. Further, the Ratio EC50 in series [4] was 680. The outcome in series [7] was inactive.
Regarding `CCCCC(NC(=O)[C@H](CCC(=O)O)NC(=O)[C@H](CC(=O)O)NC(=O)[C@H](CO)NC(=O)[C@H](Cc1ccccc1)NC(=O)[C@H](CO)NC(=O)CNC(=O)[C@H](CC(=O)O)NC(=O)CNC(=O)[C@@H](N)Cc1cnc[nH]1)C(=O)N[C@@H](CC(C)C)C(=O)N[C@H](C(=O)N[C@H](C(=O)N[C@@H](CC(C)C)C(=O)N[C@@H](CC(=O)O)C(=O)N[C@@H](CC(N)=O)C(=O)N[C@@H](CC(C)C)C(=O)N[C@@H](C)C(=O)N[C@@H](C)C(=O)N[C@@H](CCCNC(=N)N)C(=O)N[C@@H](CC(=O)O)C(=O)N[C@@H](Cc1ccccc1)C(=O)N[C@H](C(=O)N[C@@H](CC(N)=O)C(=O)N[C@@H](Cc1c[nH]c2ccccc12)C(=O)N[C@@H](CC(C)C)C(=O)N[C@H](C(=O)N[C@@H](CCC(N)=O)C(=O)N[C@H](C(=O)N[C@@H](CCCCN)C(N)=O)[C@@H](C)O)[C@@H](C)CC)[C@@H](C)CC)[C@@H](C)CC)[C@@H](C)O` (stereo partly specified), the EC50 was determined as 0.15 nM in series [1] and 180 nM in series [2]. Further, the Efficacy in series [6] was 44%. Further, the result in series [7] was inactive.

These data come from ChEMBL document CHEMBL3822442, “Synthesis and Pharmacological Characterization of Novel Glucagon-like Peptide-2 (GLP-2) Analogues with Low Systemic Clearance” (J Med Chem, 2016).
